Data published in US6420330B1, “Use of quaternary carboxylic acid alkanolamine ester salts as microbicide agents” (Cognis Deutschland GmbH, priority 1997, dated 2002).

Columns and labels:
Assay in all cases: DGHM suspension test, microbicidal activity
Assay type in all cases: cell-based
[1] = tested on: Candida albicans ATCC 10231
Experimental: (§1) The microbicidal activity of the quanterary carboxylic acid alkanolamine ester salts used in accordance with the invention was tested against the following selected test germs:
(§2) The effectiveness of the compound to be tested was determined by the suspension test in accordance with the guidelines of the Deutsche Gesellschaft for Hygiene and Mikrobiologie (DGHM). Test solutions containing quatemary carboxylic acid alkanolamine ester salts in the quantities shown in the Tables of 50, 100, 200, 400 and 800 mg/l were prepared using water with a hardness of 17° dH and optionally isopropanol.
(§3) At room temperatures, quantities of 0.1 ml test germ suspension were pipetted into test tubes containing 10 ml of the test solutions described above and mixed. After various contact times of 5, 15, 30 and 60 minutes, 1 ml of material was taken from the test tubes by pipette and transferred to 9 ml inactivator solution (inactivators: 3.0% Tween, 0.3% lecithin, 0.1% histidine). After in activation for at least 5 and at most 30 minutes, the living germ count was determined by plating out onto casein peptone-soybean flour peptone (CaSo)-agar plates. Using a spiral plater, the inactivating mixture was directly plated out onto CaSo-agar. The samples were incubated for 24 to 72 hours at 37° C. and macroscopically evaluated for growth. The destruction time or the residual germ count was determined in this way. The germ count of an unchallenged water control is related to the germ count of the inactivated test solution taking the dilution into account. The higher the value, the better the microbicidal effect. The symbol < means that the logarithmic reductuon factor is below the indicated value or, in the case of the symbol >, above the indicated value. The abbreviation CU stands for “concentration used”.

[2] = tested on: Pseudomonas aeruginosa ATCC 15442
Experimental: as §1, §2, §3

[3] = tested on: Staphylococcus aureus ATCC 6538
Experimental: as §1, §2, §3

[4] = CU 50 mg/l, contact time 5 mins.
[5] = CU 50 mg/l, contact time 15 mins.
[6] = CU 50 mg/l, contact time 30 mins.
[7] = CU 50 mg/l, contact time 60 mins.
[8] = CU 100 mg/l, contact time 5 mins.
[9] = CU 100 mg/l, contact time 15 mins.
[10] = CU 100 mg/l, contact time 30 mins.
[11] = CU 100 mg/l, contact time 60 mins.
[12] = CU 200 mg/l, contact time 5 mins.
[13] = CU 200 mg/l, contact time 15 mins.
[14] = CU 200 mg/l, contact time 30 mins.
[15] = CU 200 mg/l, contact time 60 mins.
[16] = CU 400 mg/l, contact time 5 mins.
[17] = CU 400 mg/l, contact time 15 mins.
[18] = CU 400 mg/l, contact time 30 mins.
[19] = CU 400 mg/l, contact time 60 mins.
[20] = CU 800 mg/l, contact time 5 mins.
[21] = CU 800 mg/l, contact time 15 mins.
[22] = CU 800 mg/l, contact time 30 mins.
[23] = CU 800 mg/l, contact time 60 mins.

CCCCCCCC(=O)OCC[N+](C)(CCOC(=O)CCCCCCC)CCOC(=O)CCCCCCC.COS(=O)(=O)[O-] [Example 2, methyl triethanolammonium tricaprylic acid ester methosulfate]
logarithmic reduction factor [1, 4]: 3.44
logarithmic reduction factor [1, 5]: >4.71
logarithmic reduction factor [1, 6]: >4.82
logarithmic reduction factor [1, 7]: >4.68
logarithmic reduction factor [1, 8]: >4.73
logarithmic reduction factor [1, 9]: >4.71
logarithmic reduction factor [1, 10]: >4.82
logarithmic reduction factor [1, 11]: >4.68
logarithmic reduction factor [1, 12]: >4.73
logarithmic reduction factor [1, 13]: >4.71
logarithmic reduction factor [1, 14]: >4.82
logarithmic reduction factor [1, 15]: >4.68
logarithmic reduction factor [1, 16]: >4.73
logarithmic reduction factor [1, 17]: >4.71
logarithmic reduction factor [1, 18]: >4.82
logarithmic reduction factor [1, 19]: >4.68
logarithmic reduction factor [1, 20]: >4.73
logarithmic reduction factor [1, 21]: >4.71
logarithmic reduction factor [1, 22]: <4.82
logarithmic reduction factor [1, 23]: >4.68
logarithmic reduction factor [2, 4]: <1.38
logarithmic reduction factor [2, 5]: <1.70
logarithmic reduction factor [2, 6]: 3.31
logarithmic reduction factor [2, 7]: 3.98
logarithmic reduction factor [2, 8]: <1.38
logarithmic reduction factor [2, 9]: 3.25
logarithmic reduction factor [2, 10]: 3.75
logarithmic reduction factor [2, 11]: 4.49
logarithmic reduction factor [2, 12]: 1.38
logarithmic reduction factor [2, 13]: 3.95
logarithmic reduction factor [2, 14]: 4.40
logarithmic reduction factor [2, 15]: >5.59
logarithmic reduction factor [2, 16]: 4.08
logarithmic reduction factor [2, 17]: >5.70
logarithmic reduction factor [2, 18]: >5.68
logarithmic reduction factor [2, 19]: >5.59
logarithmic reduction factor [2, 20]: 4.42
logarithmic reduction factor [2, 21]: >5.70
logarithmic reduction factor [2, 22]: >5.68
logarithmic reduction factor [2, 23]: >5.59
logarithmic reduction factor [3, 4]: 3.21
logarithmic reduction factor [3, 5]: >5.38
logarithmic reduction factor [3, 6]: >5.50
logarithmic reduction factor [3, 7]: >5.41
logarithmic reduction factor [3, 8]: 3.54
logarithmic reduction factor [3, 9]: >5.38
logarithmic reduction factor [3, 10]: >5.50
logarithmic reduction factor [3, 11]: >5.41
logarithmic reduction factor [3, 12]: 4.32
logarithmic reduction factor [3, 13]: >5.38
logarithmic reduction factor [3, 14]: >5.50
logarithmic reduction factor [3, 15]: >5.41
logarithmic reduction factor [3, 16]: >5.56
logarithmic reduction factor [3, 17]: >5.38
logarithmic reduction factor [3, 18]: >5.50
logarithmic reduction factor [3, 19]: >5.41
logarithmic reduction factor [3, 20]: >5.56
logarithmic reduction factor [3, 21]: >5.38
logarithmic reduction factor [3, 22]: >5.50
logarithmic reduction factor [3, 23]: >5.41

CCCCCCCCC(=O)OCC[N+](C)(C)CCOC(=O)CCCCCCCC.COS(=O)(=O)[O-] [Example 3, dimethyl diethanolammonium dipelargonic acid ester methosulfate]
logarithmic reduction factor [1, 4]: 2.86
logarithmic reduction factor [1, 5]: >4.63
logarithmic reduction factor [1, 6]: >4.66
logarithmic reduction factor [1, 7]: >4.67
logarithmic reduction factor [1, 8]: >4.63
logarithmic reduction factor [1, 9]: >4.63
logarithmic reduction factor [1, 10]: >4.66
logarithmic reduction factor [1, 11]: >4.67
logarithmic reduction factor [1, 12]: >4.63
logarithmic reduction factor [1, 13]: >4.63
logarithmic reduction factor [1, 14]: >4.66
logarithmic reduction factor [1, 15]: >4.67
logarithmic reduction factor [1, 16]: >4.63
logarithmic reduction factor [1, 17]: >4.63
logarithmic reduction factor [1, 18]: >4.66
logarithmic reduction factor [1, 19]: >4.67
logarithmic reduction factor [1, 20]: >4.63
logarithmic reduction factor [1, 21]: >4.63
logarithmic reduction factor [1, 22]: >4.66
logarithmic reduction factor [1, 23]: >4.67
logarithmic reduction factor [2, 4]: <1.59
logarithmic reduction factor [2, 5]: 2.99
logarithmic reduction factor [2, 6]: 3.58
logarithmic reduction factor [2, 7]: 3.77
logarithmic reduction factor [2, 8]: 4.36
logarithmic reduction factor [2, 9]: >5.58
logarithmic reduction factor [2, 10]: >5.67
logarithmic reduction factor [2, 11]: >5.53
logarithmic reduction factor [2, 12]: >5.59
logarithmic reduction factor [2, 13]: >5.58
logarithmic reduction factor [2, 14]: >5.67
logarithmic reduction factor [2, 15]: >5.53
logarithmic reduction factor [2, 16]: >5.59
logarithmic reduction factor [2, 17]: >5.58
logarithmic reduction factor [2, 18]: >5.67
logarithmic reduction factor [2, 19]: >5.53
logarithmic reduction factor [2, 20]: >5.59
logarithmic reduction factor [2, 21]: >5.58
logarithmic reduction factor [2, 22]: >5.67
logarithmic reduction factor [2, 23]: >5.53
logarithmic reduction factor [3, 4]: <1.31
logarithmic reduction factor [3, 5]: 2.31
logarithmic reduction factor [3, 6]: 3.01
logarithmic reduction factor [3, 7]: 4.85
logarithmic reduction factor [3, 8]: <1.31
logarithmic reduction factor [3, 9]: 3.67
logarithmic reduction factor [3, 10]: >5.19
logarithmic reduction factor [3, 11]: >5.55
logarithmic reduction factor [3, 12]: 2.05
logarithmic reduction factor [3, 13]: >5.74
logarithmic reduction factor [3, 14]: >5.19
logarithmic reduction factor [3, 15]: >5.55
logarithmic reduction factor [3, 16]: 3.25
logarithmic reduction factor [3, 17]: >5.74
logarithmic reduction factor [3, 18]: >5.19
logarithmic reduction factor [3, 19]: >5.55
logarithmic reduction factor [3, 20]: 3.78
logarithmic reduction factor [3, 21]: >5.74
logarithmic reduction factor [3, 22]: >5.19
logarithmic reduction factor [3, 23]: >5.55

CCCCCCCCCC(=O)OCC[N+](C)(CCO)CCOC(=O)CCCCCCCCC.COS(=O)(=O)[O-] [Example 6, methyl triethanolammonium dicapric acid ester methosulfate]
logarithmic reduction factor [1, 4]: <0.87
logarithmic reduction factor [1, 5]: 1.64
logarithmic reduction factor [1, 6]: 1.93
logarithmic reduction factor [1, 7]: 2.62
logarithmic reduction factor [1, 8]: 1.27
logarithmic reduction factor [1, 9]: 3.03
logarithmic reduction factor [1, 10]: 3.75
logarithmic reduction factor [1, 11]: 4.15
logarithmic reduction factor [1, 12]: 1.24
logarithmic reduction factor [1, 13]: 3.66
logarithmic reduction factor [1, 14]: >4.78
logarithmic reduction factor [1, 15]: >4.67
logarithmic reduction factor [1, 16]: 1.38
logarithmic reduction factor [1, 17]: 3.51
logarithmic reduction factor [1, 18]: >4.78
logarithmic reduction factor [1, 19]: >4.67
logarithmic reduction factor [1, 20]: 1.33
logarithmic reduction factor [1, 21]: >4.87
logarithmic reduction factor [1, 22]: >4.78
logarithmic reduction factor [1, 23]: >4.67
logarithmic reduction factor [2, 4]: <1.85
logarithmic reduction factor [2, 5]: <1.79
logarithmic reduction factor [2, 6]: <1.71
logarithmic reduction factor [2, 7]: <1.81
logarithmic reduction factor [2, 8]: <1.85
logarithmic reduction factor [2, 9]: <1.79
logarithmic reduction factor [2, 10]: <1.71
logarithmic reduction factor [2, 11]: 3.19
logarithmic reduction factor [2, 12]: <1.85
logarithmic reduction factor [2, 13]: <1.79
logarithmic reduction factor [2, 14]: 3.35
logarithmic reduction factor [2, 15]: 3.89
logarithmic reduction factor [2, 16]: <1.85
logarithmic reduction factor [2, 17]: <1.79
logarithmic reduction factor [2, 18]: 4.18
logarithmic reduction factor [2, 19]: >5.81
logarithmic reduction factor [2, 20]: <1.85
logarithmic reduction factor [2, 21]: 4.14
logarithmic reduction factor [2, 22]: 4.76
logarithmic reduction factor [2, 23]: >5.81
logarithmic reduction factor [3, 4]: 4.12
logarithmic reduction factor [3, 5]: >5.73
logarithmic reduction factor [3, 6]: >5.75
logarithmic reduction factor [3, 7]: >5.86
logarithmic reduction factor [3, 8]: 4.58
logarithmic reduction factor [3, 9]: >5.73
logarithmic reduction factor [3, 10]: >5.75
logarithmic reduction factor [3, 11]: >5.86
logarithmic reduction factor [3, 12]: 4.55
logarithmic reduction factor [3, 13]: >5.73
logarithmic reduction factor [3, 14]: >5.75
logarithmic reduction factor [3, 15]: >5.86
logarithmic reduction factor [3, 16]: 4.48
logarithmic reduction factor [3, 17]: >5.73
logarithmic reduction factor [3, 18]: >5.75
logarithmic reduction factor [3, 19]: >5.86
logarithmic reduction factor [3, 20]: 5.44
logarithmic reduction factor [3, 21]: >5.73
logarithmic reduction factor [3, 22]: >5.75
logarithmic reduction factor [3, 23]: >5.86
